From patent US20090170932A1, “DISINFECTANT COMPOSITIONS, METHODS AND SYSTEMS” (Tyco Healthcare Group LP, priority 2007, published 2009)
Where “and” joins values, the source holds several entries; their conditions need not be identical. Equal values may be shown once.

Columns and labels:
P. aeruginosa = assay: Checkerboard Titration (FIC index); assay type: cell-based; details: for FIC of the single component (FIC-NAC, FIC-VC): P. aeruginosa, MIC in combination / MIC alone
Protocol: (§1) The method used was a NCCLS micro-dilution procedure. […] The following concentrations were tested (for S. aureus see FIG. 9 and for P. aeruginosa see FIG. 7 for combinations at a pH<4): [table] Fraction Inhibitory Concentration (FIC) is defined as the MIC of the compound in combination divided by the MIC of the compound alone. If the FIC index is ≦0.5, the combination is interpreted to be synergistic; <1 but >0.5-as partially synergistic; =1 as additive; >1 but <4 as indifferent; and ≧4 as antagonistic.

[1] = cited from earlier work
[2] = tested on: blood coagulation (clotting); assay: Prothrombin Time (PT) Assay, INR; assay type: biochemical; details: single agent, within the tested range
Protocol: Experiments were conducted to assess the anticoagulant capacities of NAC, Vitamin C and combinations of NAC and Vitamin C via a Prothrombin Time (PT) Assay. A PT assay (TM-4339-063) was conducted using a Coagulation Analyzer to obtain PT instead of manually recording the PT. […] INR (International Normalized Ratio) is a system established by the World Health Organization (WHO) and the International Committee on Thrombosis and Hemostasis for reporting the results of blood coagulation (clotting) tests. INR is calculated as: INR=([…] sample/PTnormal control)^ISI ISI (International Sensitivity Index) indicates the sensitivity of individual thromboplastin. […] All the PTs greater than 3× the […] 1 (normal control) were replaced with 31 seconds.

blood coagulation = details: patients; cited publications; cited from earlier work
[3] = tested on: Staphylococcus aureus (organism # 25923); assay: pH experiments: MIC at adjusted pH, NCCLS micro-dilution; assay type: cell-based; details: S. aureus
Protocol: (§2) In order to determine MIC and MBC (minimum bactericidal concentration) a National Committee on Clinical Laboratory Standards (NCCLS) micro-dilution procedure was followed. […] In the current protocol 100 μL of MHB was mixed with 90 μL of formulation and 10 μL of log 8 organism or the highest achievable concentration. The concentration of the formulation was adjusted to obtain the required concentration in the final solution. The mixture was incubated at 37 degree C. for 16-24 hrs. After 16-24 hours the absorbance value was read at 600 nm. The obtained data was corrected by subtracting the appropriate blanks. Finally, the wells having an absorbance≧0.1 were marked + and <0.1 were marked −. The + symbol indicated growth while − symbol indicates no growth. […] Staphylococcus aureus (organism # 25923) was obtained from ATCC. […] N-acetyl cysteine (NAC) was used (Acros, Catalogue # 160280250, Lot # A0229576). A 4 wt % NAC solution in water was prepared at a pH of 4. A 4 wt % NAC solution in water was prepared at a pH of 6. […] These solutions were then serially diluted as necessary to obtain the required concentrations. […]

[4] = in vivo; cited from earlier work
Osmolarity of solutions = assay type: physicochemical; details: 4 wt % (w/v) of each component in solution
Description: Formulation and production of disinfectant compositions of the present disclosure are generally straightforward. […] The disinfectant solution may then be sterilized using conventional means, such as filtration and/or ultrafiltration, and other means. […] The solutions are preferably formulated using USP materials.

[5] = tested on: Staphylococcus aureus (organism # 25923); assay: pH experiments: MBC (minimum bactericidal concentration); assay type: cell-based; details: S. aureus
Protocol: as §2

S. aureus = assay: Checkerboard Titration (FIC index), pH<4; assay type: cell-based; details: for FIC of the single component (FIC-NAC, FIC-VC): S. aureus, MIC in combination / MIC alone
Protocol: as §1

[6] = tested on: Staphylococcus aureus (organism # 25923); assay: MIC test, NCCLS micro-dilution; assay type: cell-based; details: S. aureus; pH not adjusted (pH < 4); listed as VC
Protocol: (§3) The minimum concentration of a composition required to inhibit growth is known as the minimum inhibitory concentration (MIC). In order to determine MIC a National Committee on Clinical Laboratory Standards (NCCLS) micro-dilution procedure was followed. […] In the current protocol 100 μL of MHB was mixed with 90 μL of formulation and 10 μL of log 8 organism or the highest achievable concentration. The concentration of the formulation was adjusted to obtain the required concentration in the final solution. The mixture was incubated at 37 degree C. for 16-24 hrs. After 16-24 hours the absorbance value was read at 600 nm. The obtained data was corrected by subtracting the appropriate blanks. Finally, the wells having an absorbance≧0.1 were marked + and <0.1 were marked −. The + symbol indicated growth while − symbol indicates no growth. […] In cases where the positive growth controls corrected absorbance is lower than 0.5, an alternate rule is utilized which is “absorbance<than 20% of positive growth control is marked as − growth, while absorbance≧than 20% of positive growth control is marked as + growth”. Staphylococcus aureus (organism # 25923), Pseudomonas aeruginosa (Organism # 27853) and Candida Albicans (Organism # 10231) was obtained from ATCC. […] N-acetyl cysteine (NAC) was used (Acros, Catalogue # 160280250, Lot # A0229576). A 8 wt % NAC solution in water was prepared. […]

[7] = tested on: Candida Albicans (Organism # 10231); assay: MIC test, NCCLS micro-dilution; assay type: cell-based; details: C. albicans; pH not adjusted
Protocol: as §3

[8] = pH of 6, 2.0 wt % starting point
[9] = pH=6, 2.0% (w/v) starting point

Row | SMILES | MIC-NAC / MIC-VC (MIC of the component in combination with the other) (P. aeruginosa; P. aeruginosa in MHB) | FIC of the single component (FIC-NAC, FIC-VC) (P. aeruginosa) | Solubility in chloroform and ether [1] | Change of INR with increase in concentration [2] | Anti-coagulant effect (literature) (blood coagulation) | MIC ([3]; pH of 4) | MIC [3, 8] [wt %] | MIC ([3]; pH=4) | MIC [3, 9] | dose shown to be safe for administration to humans [4] [mg/day] | osmolarity (Osmolarity of solutions) [mOsm/Kg] | MBC ([5]; pH of 4) [wt %] | MBC ([5]; pH=4) | MIC-NAC / MIC-VC (MIC of the component in combination with the other) (S. aureus; S. aureus in MHB) | FIC of the single component (FIC-NAC, FIC-VC) (S. aureus) | MIC [6] [wt %] | MIC [7] [wt %] | MIC ([3]; pH of 6, 2.0 wt % starting point, listed as VC) [wt %]
1 | CC(=O)N[C@@H](CS)C(=O)O [NAC, N-acetyl-L-cysteine] | 0.25 % (w/v) | 0.35 | practically insoluble | increase in INR | some anti-coagulant effect | 2.0 wt % and 2 wt % | >2 | 2.0 % (w/v) | > 2.0 % (w/v) | 1200 | 237 | 2.0 | 2.0 % (w/v) | 0.25 % (w/v) | 0.4 | – | – | –
2 | O=C1O[C@H]([C@@H](O)CO)C(O)=C1O [Vitamin C, L-ascorbic acid] | – | 0.35 | – | no significant increase in INR | has not been identified as an effective anticoagulant when compared with heparin | 0.5 wt % | > 2.0 | 0.5 % (w/v) | > 2.0 % (w/v) | – | 223 | 1.0 | 1.0 % (w/v) | – | 0.4 | 0.25 | > 8 | >2
